Where two headings read alike, the source gives them in different places.
Assays:
SERT = biological target: T1, SERT (Homo sapiens, UniProt P31645); assay: cell-based; conditions: stable 5HTT cells, 30 minutes at 37° C.
T1 construct: expressed in transfected cells

[1] = assay type: physicochemical; conditions: acidic pH 2.0, 25 or 37° C.
Procedure: The hydrolysis kinetics was under a certain temperature and measured by LCMS at a certain time interval. The corresponding LCMS chromatograms were recorded and the conversions were calculated. The hydrolysis conditions and the data were summarized in below table. LCMS spectra were obtained using Agilent 1200G1956A or SHIMADZU LCMS-2020. Standard LCMS conditions were as follows (running time 1.55 minutes):
Acidic condition: Mobile Phase A: 0.0375% TFA in water (v/v). Mobile Phase B: 0.01875% TFA in acetonitrile (v/v); Column: Kinetex EVO C18 30*2.1 mm, 5 μm.
Basic condition: Mobile Phase A: 0.025% NH3—H2O in water (v/v). Mobile Phase B: Acetonitrile; Column: Kinetex EVO C18 2.1×30 mm, 5 μm.
Conversion (%)=peak area 1/(peak area 1+peak area 2)*100%, peak area 1 is the integration of hydrolyzed product, peak area 2 is the integration of starting material.

[2] = in vivo; cited from earlier work
[3] = Hydrolysis Assay of Example A2, Condition 1 (SGF with pepsin, pH 1.5, 37° C.); assay type: physicochemical; conditions: SGF with pepsin pH 1.5, 37° C., 0.5 mM
[4] = 2 mg/kg iv in rat
Procedure: Brain samples were homogenized with PBS (W/V, 1:3). Plasma/brain samples were mixed with acetonitrile containing internal standard. The samples were vortexed then centrifuged at 4 degrees Celsius for 15 minutes. The supernatant was diluted with water (1:2 V/V) and analyzed by LC/MS/MS for quantitative analysis. […] Area under the curve (AUC) was calculated and divided by dose to account for molecular weight difference of prodrug and metabolite (AUC/D).

[5] = assay type: physicochemical; conditions: DI water, 25° C., 0.5 mM

T1 sequence (P31645 whole entry, species assumed): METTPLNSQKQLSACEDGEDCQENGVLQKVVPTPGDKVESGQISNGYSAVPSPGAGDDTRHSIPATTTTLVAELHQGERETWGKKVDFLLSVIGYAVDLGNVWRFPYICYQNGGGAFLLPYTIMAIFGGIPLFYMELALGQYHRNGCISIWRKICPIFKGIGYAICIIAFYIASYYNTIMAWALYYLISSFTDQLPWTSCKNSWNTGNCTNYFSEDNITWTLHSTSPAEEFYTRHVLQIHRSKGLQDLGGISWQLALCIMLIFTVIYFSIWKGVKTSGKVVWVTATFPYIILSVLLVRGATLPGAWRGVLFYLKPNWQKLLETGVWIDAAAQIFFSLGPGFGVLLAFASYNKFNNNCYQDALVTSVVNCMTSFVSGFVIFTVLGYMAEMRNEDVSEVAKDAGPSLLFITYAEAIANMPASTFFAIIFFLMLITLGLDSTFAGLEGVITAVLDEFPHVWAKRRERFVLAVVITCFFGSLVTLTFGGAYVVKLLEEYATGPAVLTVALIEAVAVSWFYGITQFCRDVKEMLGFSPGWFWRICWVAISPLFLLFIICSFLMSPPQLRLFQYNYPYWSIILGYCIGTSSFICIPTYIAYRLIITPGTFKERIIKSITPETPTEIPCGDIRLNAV

In the case of `COc1ccc([C@@]23CCC(=NO)C[C@@H]2N(C)CC3)cc1OC` (mixture of isomers) [Compound 037], the IC50 (SERT) is reported as less than 0.05 µM and the “conversion to mesembrine” value [1] is reported as “converted to mesembrine”.
For `COc1ccc([C@@]23CCC(=O)C[C@@H]2N(C)CC3)cc1OC` [(−) mesembrine], the half-life in plasma [2] is listed as “less than 2 hours”.
In the case of `CCC(C)CC(=O)OC1=C[C@@H]2N(C)CC[C@]2(c2ccc(OC)c(OC)c2)CC1` (stereo partly drawn) [Compound 316, [(3aS,7aS)-3a-(3,4-dimethoxyphenyl)-1-methyl-3,4,5,7a-tetrahydro-2H-indol-6-yl]3-methyl pentanoate], the “Condition 1 Conversion (%)” value ([3]; time 1 min) is reported as 0%, the “Condition 1 Conversion (%)” value ([3]; time 5 min) is reported as 0% and the “Condition 1 Conversion (%)” value ([3]; time 30 min) is reported as 0%. For the same compound, the “Condition 1 Conversion (%)” value ([3]; time 1 h) was 0%, the “Condition 1 Conversion (%)” value ([3]; time 4 h) was 0% and the “Condition 1 Conversion (%)” value ([3]; time 24 h) was 0%. The “conversion to 001 in vivo” value [4] was “converts to 001 in vivo”, the “Condition 2 Conversion (%)” value ([5]; time 1 min) was 0% and the “Condition 2 Conversion (%)” value ([5]; time 5 min) was 0%. For the same compound, the “Condition 2 Conversion (%)” value ([5]; time 30 min) was 0%, the “Condition 2 Conversion (%)” value ([5]; time 1 h) was 0% and the “Condition 2 Conversion (%)” value ([5]; time 4 h) was 0%. The “Condition 2 Conversion (%)” value ([5]; time 24 h) was 0%.
